This passage reports Kd and IC50 results from patent publication US20250059188A1, “ARYLSULPHONAMIDE COMPOUNDS” (Anaxis Pharma Pty Ltd, priority 2021, published 2025).

In general, Kd refers to the equilibrium constant for the complex coming apart. A high value points to weaker binding. As a reminder, the IC50 is the concentration needed to halve the response being measured.

Molecules are shown by their SMILES. Where only a bound is given, the exact number is not on record here.

Assay [1] concerns the target human MLKL (full length) (Homo sapiens (Human), UniProt Q8NB16). As to the kind of experiment: KINOMEscan binding assay, human MLKL (full length). Particulars: equilibrium dissociation constant. In short, it runs like this:
(§1)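 Kd values come from dose-response fits to the Hill equation (Hill slope −1, Levenberg–Marquardt least squares). Compound competed with bead-bound ligand for tagged kinase, and remaining kinase was measured by qPCR after elution. Dilution series: 11 points, 3-fold, 1% DMSO final, top 30,000 nM in most runs.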

The target of assay [2] is human RIPK1 (Homo sapiens (Human), UniProt Q13546). Description: KINOMEscan binding assay, human RIPK1. Particulars: equilibrium dissociation constant. In short, it runs like this:
as §1

The test system of assay [3] is Immortalised Mouse Dermal Fibroblasts (MDFs). As to the kind of experiment: Inhibition of TSI induced necroptosis in mouse dermal fibroblasts (CellTitre-Glo). Particulars: Mus musculus, Fibroblast, 3 h, MDF cells, TSI cocktail (TNF, Smac mimetic, IDN-6556), read-out: Inhibition of TSI-induced necroptosis (IC50 cell-based assay) in MDF. Here is the method: Cellular Assay: Screening Compounds for Inhibition of TSI Induced Necroptosis in, 384 well plate format. • Cell Line ID: Immortalised Mouse Dermal Fibroblasts (MDFs). • Cell Concentration (cells/well): Final cell density is 2200 cells per well. • Cell growth medium: DMEM medium+7.4% Fetal Bovine Serum (FBS). Cells are cultured in Corning 150 cm^2 tissue culture flasks with vented caps at 37° C./10% CO2. • Incubation: Plates were incubated for 30 minutes following addition of compounds and then 3 hours incubation with death stimuli (TSI cocktail) at 37° C./10% CO2 in a humidified incubator. • Compound concentration: 36 μM starting concentration, 1:3 dilution, 10 point • DMSO final concentration (% v/v): 0.3%. Compounds in TSI Cocktail (T: TNF; S: Smac Mimetic; I: IDN-6556) and their Final Concentrations: • rhTNF (100 ng/ml) • Compound A (500 nM)—Smac mimetic, Tetralogic and SYNthesis med chem • IDN-6556 (10 μM)—Selleckchem (S7775)
The cellular assay was carried out according to the following steps: • 1. Each well was prepared by sequential addition of: • a. 40 μL of cell suspension (5.5×10^4 cells/mL) was added to each well to provide a final cell concentration of 2,200 cells per well. • b. After 24 hours, DMSO (control; columns 1-2 and 23-24) or compound in DMSO—addition was performed using acoustic transfer of nL volumes of stock compound to give final test concentrations of 36, 12, 4, 1.3, 0.44, 0.148, 0.049, 0.016, 0.005 and 0.002 μM. All wells were backfilled with DMSO to a final total volume in the well of 100 nL. • c. Following compound/DMSO addition in step (b), Plates were incubated for 30 minutes at 37° C./10% CO2 in a humidified incubator and then 10 μL of 5×TSI cocktail (except to positive controls; columns 2 and 24) was added to each well. • 2. After 3 hours, plate was removed from the 37° C. incubator and equilibrated to room temperature for 15 minutes. • 3. 15 μL of room temperature CellTitre-Glo2™ (Promega™) was added to each well. • 4. Shook plates for 2 minutes (˜600 rpm) and incubated at room temperature for 15 minutes to allow signal to stabilise. • 5. Read luminescence readout on a plate reader.
Percent viability was calculated for each compound according to equation (2): […]
10 point titration curves were fitted with the 4 parameter logistic nonlinear regression model and the IC50 reported reflect the inflection point of the curve for curve fitting.
• Assay involving the TSI cocktail (T: TNF; S: Smac mimetic; I: IDN-6556): TSI treatment ensures that cells specifically undergo necroptotic cell death. TNF activates the TNF receptor, Smac mimetic directs the signal away from proinflammatory signaling and toward the RIPK1/RIPK3-mediated cell death pathways, and IDN-6556 (Caspase inhibitor) ensures that the apoptotic response is blocked leaving only the programmed necrosis response. The compounds' activity (solution in DMSO) tested in this TSI-induced assay was evaluated by determining the number of viable cells in culture by measuring the amount of ATP present as measured by CelltiterGlo.

Assay [4] has as its target mouse MLKL (full length) (Mus musculus (Mouse), UniProt Q9D2Y4). Description: KINOMEscan binding assay, mouse MLKL (full length). Particulars: equilibrium dissociation constant. Here is the method:
Binding affinity of the test compounds for human MLKL (full length), mouse MLKL (full length), human RIPK1 and human RIPK3 was determined using the KINOMEscan™ technology developed by DiscoverX (USA; http://www.discoverx.com). The assay was conducted according to manufacturer instructions.
Kinase assays. For most assays, kinase-tagged T7 phage strains were grown in parallel in 24-well blocks in an E. coli host derived from the BL21 strain. E. coli were grown to log-phase and infected with T7 phage from a frozen stock (multiplicity of infection=0.4) and incubated with shaking at 32° C. until lysis (90-150 minutes). The lysates were centrifuged (6,000×g) and filtered (0.2 μm) to remove cell debris. The remaining kinases were produced in HEK-293 cells and subsequently tagged with DNA for qPCR detection. […] The liganded beads were blocked with excess biotin and washed with blocking buffer (SeaBlock (Pierce), 1% BSA, 0.05% Tween 20, 1 mM DTT) to remove unbound ligand and to reduce non-specific phage binding. […] All reactions were performed in polypropylene 384-well plates in a final volume of 20 μL. […] The kinase concentration in the eluates was measured by qPCR.
An 11-point 3-fold serial dilution of each test compound was prepared in 100% DMSO at 100× final test concentration and subsequently diluted to 1× in the assay (final DMSO concentration=1%). Most Kos were determined using a compound top concentration=30,000 nM.
KD for each test compound was calculated with a standard dose-response curve using the Hill equation (equation (1)): […]
The Hill Slope was set to −1.
Curves were fitted using a non-linear least square fit with the Levenberg-Marquardt algorithm.

The target in assay [5] is human RIPK3 (Homo sapiens (Human), UniProt Q9Y572). Description: KINOMEscan binding assay, human RIPK3. Particulars: equilibrium dissociation constant. In short, it runs like this:
as §1

Chain of human MLKL (full length) (Q8NB16 whole entry): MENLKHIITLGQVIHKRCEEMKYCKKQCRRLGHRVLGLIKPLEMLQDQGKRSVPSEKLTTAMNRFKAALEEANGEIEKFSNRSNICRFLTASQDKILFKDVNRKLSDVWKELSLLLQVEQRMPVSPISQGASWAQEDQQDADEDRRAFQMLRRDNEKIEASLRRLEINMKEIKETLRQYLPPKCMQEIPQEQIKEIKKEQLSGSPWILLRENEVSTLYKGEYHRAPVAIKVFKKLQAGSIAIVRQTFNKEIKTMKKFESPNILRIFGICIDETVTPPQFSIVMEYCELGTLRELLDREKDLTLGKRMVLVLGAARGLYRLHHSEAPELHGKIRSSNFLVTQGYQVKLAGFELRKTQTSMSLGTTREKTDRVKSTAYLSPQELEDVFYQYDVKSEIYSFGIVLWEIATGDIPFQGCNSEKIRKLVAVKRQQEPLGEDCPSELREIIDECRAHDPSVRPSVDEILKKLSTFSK
Chain of human RIPK1 (Q13546 whole entry): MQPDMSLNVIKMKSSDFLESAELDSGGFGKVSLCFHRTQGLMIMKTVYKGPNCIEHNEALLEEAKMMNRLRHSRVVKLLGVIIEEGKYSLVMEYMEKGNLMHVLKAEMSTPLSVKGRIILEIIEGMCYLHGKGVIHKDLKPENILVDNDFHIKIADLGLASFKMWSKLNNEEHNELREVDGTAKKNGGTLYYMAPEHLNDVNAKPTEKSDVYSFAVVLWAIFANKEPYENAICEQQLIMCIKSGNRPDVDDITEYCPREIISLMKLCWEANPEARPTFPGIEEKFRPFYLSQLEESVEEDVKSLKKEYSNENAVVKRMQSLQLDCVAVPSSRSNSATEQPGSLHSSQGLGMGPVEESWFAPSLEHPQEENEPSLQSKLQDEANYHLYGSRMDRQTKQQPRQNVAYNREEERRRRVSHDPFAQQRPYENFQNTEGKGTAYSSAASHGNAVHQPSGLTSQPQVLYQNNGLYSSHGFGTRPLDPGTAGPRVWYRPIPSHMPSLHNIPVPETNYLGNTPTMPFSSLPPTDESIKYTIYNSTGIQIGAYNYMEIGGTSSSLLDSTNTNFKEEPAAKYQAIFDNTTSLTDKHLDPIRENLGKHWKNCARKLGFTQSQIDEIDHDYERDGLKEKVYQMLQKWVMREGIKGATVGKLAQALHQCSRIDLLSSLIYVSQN
Chain of human RIPK3 (Q9Y572 whole entry): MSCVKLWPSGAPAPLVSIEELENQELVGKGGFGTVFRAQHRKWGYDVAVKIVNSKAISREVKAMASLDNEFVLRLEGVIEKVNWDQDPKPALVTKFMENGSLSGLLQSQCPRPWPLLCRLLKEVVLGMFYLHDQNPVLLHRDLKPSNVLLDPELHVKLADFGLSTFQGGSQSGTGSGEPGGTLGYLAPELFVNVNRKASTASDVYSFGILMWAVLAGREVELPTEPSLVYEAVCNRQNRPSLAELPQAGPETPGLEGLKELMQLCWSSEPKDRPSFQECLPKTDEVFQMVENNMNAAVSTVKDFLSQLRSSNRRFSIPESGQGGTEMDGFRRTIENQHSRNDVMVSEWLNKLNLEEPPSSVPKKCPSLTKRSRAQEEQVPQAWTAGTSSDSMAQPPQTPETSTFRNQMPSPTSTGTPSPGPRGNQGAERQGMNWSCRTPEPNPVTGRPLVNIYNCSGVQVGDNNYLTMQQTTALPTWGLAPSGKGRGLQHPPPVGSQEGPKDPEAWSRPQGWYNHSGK
Chain of mouse MLKL (full length) (Q9D2Y4 whole entry): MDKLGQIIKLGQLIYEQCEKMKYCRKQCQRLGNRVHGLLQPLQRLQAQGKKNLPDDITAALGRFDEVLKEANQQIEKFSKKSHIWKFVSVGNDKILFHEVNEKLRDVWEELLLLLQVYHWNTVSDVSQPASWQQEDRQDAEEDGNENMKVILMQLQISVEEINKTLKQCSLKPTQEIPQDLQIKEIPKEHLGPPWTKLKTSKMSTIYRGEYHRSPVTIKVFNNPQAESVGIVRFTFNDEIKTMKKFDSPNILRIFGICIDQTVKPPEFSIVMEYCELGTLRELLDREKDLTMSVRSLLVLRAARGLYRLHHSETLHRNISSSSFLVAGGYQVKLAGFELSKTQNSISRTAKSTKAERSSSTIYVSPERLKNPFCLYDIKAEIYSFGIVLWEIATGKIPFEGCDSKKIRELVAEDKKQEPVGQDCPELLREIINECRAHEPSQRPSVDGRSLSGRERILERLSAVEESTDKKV

For the compound `Nc1ncc(-c2cnn(C3CCOCC3)c2)c2occ(-c3ccc(NS(=O)(=O)CC(F)(F)F)c(OCc4ccc(F)cc4)c3)c12` [Compound 11, N-(4-(4-amino-7-(1-(tetrahydro-2H-pyran-4-yl)-1H-pyrazol-4-yl)furo[3,2-c]pyridin-3-yl)-2-((4-fluorobenzyl)oxy)phenyl)-2,2,2-trifluoroethane-1-sulfonamide], the dissociation constant Kd in assay [1] was 1 to 100 nM; in assay [2], more than 10000 nM; in assay [4] it was 1 to 100 nM; in assay [5], more than 10000 nM. Besides, the IC50 in assay [3] lay in the range of 1000 to 10000 nM.
